Source: patent publication US20210267929A1, “COMPOSITIONS AND METHODS FOR TREATMENT OF ORAL ULCERATION AND ORAL MUCOSITIS” (CelaCare Technologies, Inc., priority 2018, published 2021)
Values after ≈ are worked out from the molar mass of the structure shown.

Experiments:
[1] = according to the EPA; cited from earlier work
[2] = total body contents from past cases; cited from earlier work
[3] = estimated from animal studies in mice, rats, dogs, and monkeys; cited from earlier work
[4] = tested on: Candida albicans ATCC 10231; assay: Broth microdilution MIC (EUCAST), oral rinse vs marketed antifungals; assay type: cell-based; details: 35° C., 48 hours, at least 50% OD530 inhibition; for MIC: ATCC10231, RPMI + 2% glucose, read-out: MIC (mg/L) Mean
Source text: (§1) The purpose of this experiment was to determine the potency of one embodiment of the oral rinse on different Candida species, namely Candida albicansATCC 10231 and ATCC 24433, Candida glabrataATCC 15126, Candida krusei (Issechenkia orientalis)ATCC 6258, Candida parapsilosisATCC 22019, and Candida tropicalisATCC 1369, to determine the minimum inhibitory concentration (MIC) of the oral rinse on each species. The oral rinse was compared to current antifungal treatments on the market.
(§2) The embodiment of the oral rinse 150528 tested in this experiment included 10 μg/mL silver citrate complex, 3 mg/mL acemannan, 5 mg/mL Disodium EDTA, 0.1 mg/mL Hyaluronic acid, 2 mg/mL PVP, 3.5 mg/ml of masking and cherry flavor, purified water, pH adjustment with tris(hydroxymethyl)aminomethane to a pH of 6.59. The current antifungal treatments that were tested and compared were Fluconazole (Sigma-Aldrich, Cat: PHR1160-1G, Lot LRAA6502) a Nystatin suspension (Sigma-Aldrich, Cat: N6261-SMU, Lot 020M13491V), and Gentian Violet (1% Humco, Cat: NDC 0395-1003-92, Lot547845).
(§3) The antimicrobial activity of the oral rinse solution as described above, Example 1, was tested using the micro-tube dilution method described in the Method for Determination of Broth Dilution MICs of Antifungal agents for fermentative yeasts, published by the European Committee for Antimicrobial Susceptibility Testing (EUCAST). In brief, a standard inoculum of each microorganism was prepared by diluting a 0.5 MacFarland turbidity standard of the microorganism 1:100 in RPMI media without sodium bicarbonate plus 2% glucose. Then, 100 μL of the standard inoculum was added to equal volumes of two-fold serial dilutions of the oral rinse solution or controls, and the plates were incubated at 35° C. for 48 hours. MICs were determined photometrically as the lowest antimicrobial agent concentration (last well in the dilution series) that inhibited OD530 absorbance at least 50%. Each experiment was performed three times, with each antimicrobial agent tested in duplicate or triplicate.

[5] = tested on: Issatchenkia orientalis ATCC 6258 (formerly known as Candida krusei); assay: as above; assay type: cell-based; details: 35° C., 48 hours, at least 50% OD530 inhibition; for MIC: Pichia kudriavzevii, ATCC6258, RPMI + 2% glucose, read-out: MIC (mg/L) Mean
Source text: as §1, §2, §3

[6] = tested on: Candida albicans ATCC 24433; assay: as above; assay type: cell-based; details: 35° C., 48 hours, at least 50% OD530 inhibition; for MIC: ATCC24433, RPMI + 2% glucose, read-out: MIC (mg/L) Mean
Source text: as §1, §2, §3

[7] = tested on: Candida parapsilosis ATCC 22019; assay: as above; assay type: cell-based; details: 35° C., 48 hours, at least 50% OD530 inhibition; for MIC: Lodderomyces parapsilosis, ATCC22019, RPMI + 2% glucose, read-out: MIC (mg/L) Mean
Source text: as §1, §2, §3

[8] = tested on: Candida tropicalis ATCC 1369; assay: as above; assay type: cell-based; details: 35° C., 48 hours, at least 50% OD530 inhibition; for MIC: ATCC1369, RPMI + 2% glucose, read-out: MIC (mg/L) Mean
Source text: as §1, §2, §3

[9] = tested on: Candida glabrata ATCC 15126; assay: as above; assay type: cell-based; details: 35° C., 48 hours, at least 50% OD530 inhibition; for MIC: Nakaseomyces glabratus, ATCC15126, RPMI + 2% glucose, read-out: MIC (mg/L) Mean
Source text: as §1, §2, §3

[10] = tested on: Issatchenkia orientalis ATCC 5258 (formerly known as Candida krusei); assay: Broth microdilution MIC (CLSI M27), oral rinses, silver API and controls; assay type: cell-based; details: 35° C., 24 hours, at least 50% OD530 inhibition; for MIC: Pichia kudriavzevii, ATCC5258, CLSI M27, RPMI, read-out: MIC (mg/L) Mean
Experimental: (§4) This experiment tested two examples of the oral rinse in the treatment of three different Candida organisms associated with oral mucositis. The embodiments of the Oral Rinses tested in this experiment were: • Oral Rinse 170915-10 μg/mL silver citrate complex, 4 mg/mL acemannan, 5 mg/mL Disodium EDTA, 0.1 mg/mL Hyaluronic acid, 2 mg/mL PVP, 5.75 mg/ml of masking and cherry flavor, purified water, pH adjustment with tris(hydroxymethyl)aminomethane to a pH of 6.36. • Oral Rinse 170719-8 μg/mL silver citrate complex, 3.9 mg/mL acemannan, 5 mg/mL Disodium EDTA, 0.1 mg/mL Hyaluronic acid, 2 mg/mL PVP, 5.75 mg/ml of masking agent and cherry flavor, purified water, pH adjustment with tris(hydroxymethyl)aminomethane to a pH of 6.38.
(§5) The antimicrobial activity of two oral rinse solutions as described above, Example 2, was tested using the microtube dilution method described in the Clinical and Laboratory Standards Institute (CLSI) Reference Method for Broth Dilution Antifungal Susceptibility Testing of Yeasts, M27-4. In brief, a standard inoculum of each microorganism was prepared by diluting a 0.5 MacFarland turbidity standard of the microorganism 1:100 in RPMI media without sodium bicarbonate. Then, 100 μL of the standard inoculum was added to equal volumes of two-fold serial dilutions of the silver API (active pharmaceutical ingredient, silver citrate complex), controls, or the oral rinse solution, and the plates were incubated at 35° C. for 24 hours. MICs were determined photometrically as the lowest antimicrobial agent concentration (last well in the dilution series) that inhibited OD530 absorbance at least 50%. Each experiment was performed three times, with each antimicrobial agent tested in duplicate or triplicate.

[11] = tested on: Candida albicans ATCC 24433; assay: as above; assay type: cell-based; details: 35° C., 24 hours, at least 50% OD530 inhibition; for MIC: ATCC24433, CLSI M27, RPMI, read-out: MIC (mg/L) Mean
Experimental: as §4, §5

[12] = tested on: Candida parapsilosis ATCC 22019; assay: as above; assay type: cell-based; details: 35° C., 24 hours, at least 50% OD530 inhibition; for MIC: Lodderomyces parapsilosis, ATCC22019, CLSI M27, RPMI, read-out: MIC (mg/L) Mean
Experimental: as §4, §5

[13] = tested on: Issatchenkia orientalis ATCC 5258 (formerly known as Candida krusei); details: expected control range; cited from earlier work
[14] = tested on: Candida parapsilosis ATCC 22019; details: expected control range; cited from earlier work
[15] = tested on: Staphylococcus aureus ATCC 29213; assay: Microtube dilution MIC (CLSI M07), oral rinses vs vancomycin; assay type: cell-based; details: ATCC29213, read-out: MIC (mg/L) Mean
Source text: The purpose of this experiment was to determine the potency of one embodiment of the oral rinse on three common gram-positive cocci species tested: Staphylococcus aureus, Streptococcus pneumoniae, Streptococcus pyogenes by determining the minimal inhibitory concentrations (MIC) of the oral rinse on each species. The oral rinse was compared to vancomycin, a common antibiotic used to treat various infections.
The embodiment of the oral rinses (170915 and 171003) tested in this experiment included 10 ug/mL silver citrate complex, 4 mg/mL acemannan, 5 mg/mL Disodium EDTA, 0.1 mg/mL Hyaluronic acid, 2 mg/mL PVP, […] of masking and cherry flavor, purified water, and pH adjustment with tris(hydroxymethyl)aminomethane to a pH of 6.36 and pH of 6.40, respectively. The vancomycin control (Sigma-Aldrich, Cat: PHR1160-1G, Lot LRAA9717, 5120 ppm) was reconstituted 20.5 mg/4 mL RO water.
The antimicrobial activity of this embodiment of the oral rinse solution was tested using the microtube dilution method for determining minimal inhibitory concentrations (MIC) described in the Clinical and Laboratory Standards (CLSI) Methods for Dilution Antimicrobial Susceptibility Tests for Bacteria that Grow Aerobically, M07, 11th ed, Approved January 2018. […]

[16] = tested on: Staphylococcus aureus ATCC 29213; details: expected control range; cited from earlier work
[17] = tested on: Streptococcus pneumoniae ATCC 49619; details: expected control range; cited from earlier work
healthy patients = details: in vivo; cited from earlier work
[18] = assay type: cell-based
Experimental: The product has been evaluated for cytotoxicity and deemed to be non-cytotoxic using a standard protocol at a GLP laboratory. […] A safety study for acemannan in humans was conducted to evaluate its effect in the treatment of oral aphthous ulcers. The initial study of 50 healthy patients received 0.5% acemannan incorporated into a Carbopol thickener applied to the oral mucosa of the lower lip three times a day for 7 days. Oral exams and kidney and liver function were evaluated prior to and at the end of the study. […] Since the present compositions are utilized as an oral rinse, acemannan is not expected to be absorbed systemically through the mucosa and will merely coat the patients' mouths. Acemannan has also previously been cleared to market in oral device products. Based on current safety data on the ingredients incorporated into the compositions and the 14-day duration of use for patients in the study, the compositions will not provide significant patient risks when dosed as intended.

Molecule: [Ag] [silver]
- safe lifetime continuous exposure [1]: 5 micrograms/kg/day
- total amount of silver required to cause argyria [2]: 3.8 to 6.4 g
- human elimination of silver from oral ingestion [3]: 90%

Molecule: OC(Cn1cncn1)(Cn1cncn1)c1ccc(F)cc1F [Fluconazole]
- MIC [4]: 1.2 mg/L
- MIC [5]: 24 mg/L
- MIC [6]: 0.5 mg/L
- MIC [7]: 1.2 mg/L
- MIC [8]: 0.5 mg/L
- MIC [9]: 7.3 mg/L
- MIC [10]: 14.7 mg/L (≈ 47.9 µM)
- MIC [11]: 0.583 mg/L (≈ 1.9 µM)
- MIC [12]: 1.67 mg/L (≈ 5.44 µM)
- MIC Control Range [13]: 8 to 64 µg/mL
- MIC Control Range [14]: 0.5 to 4.0 µg/mL

Molecule: Silver citrate complex
- MIC (mg/L) Mean ([10]; CLSI M27, RPMI): 0.117 mg/L
- MIC (mg/L) Mean ([11]; CLSI M27, RPMI): 0.234 mg/L
- MIC (mg/L) Mean ([12]; CLSI M27, RPMI): 0.088 mg/L

Molecule: CN[C@H](CC(C)C)C(=O)N[C@H]1C(=O)N[C@@H](CC(N)=O)C(=O)N[C@H]2C(=O)N[C@H]3C(=O)N[C@H](C(=O)N[C@H](C(=O)O)c4cc(O)cc(O)c4-c4cc3ccc4O)[C@H](O)c3ccc(c(Cl)c3)Oc3cc2cc(c3O[C@@H]2O[C@H](CO)[C@@H](O)[C@H](O)[C@H]2O[C@H]2C[C@](C)(N)[C@H](O)[C@H](C)O2)Oc2ccc(cc2Cl)[C@H]1O [Vancomycin]
- MIC [15]: 0.7 mg/L (≈ 0.483 µM)
- MIC Control Range [16]: Vancomycin (Control 0.5-2.0) mg/L
- MIC Control Range [17]: Vancomycin (Control 0.06-0.5) mg/L

Molecule: acemannan
- adverse effects or allergic reactions (healthy patients): No patients reported adverse effects or allergic reactions
- pre- versus post-test blood values (kidney and liver function) (healthy patients): no statistical difference
- cytotoxicity [18]: non-cytotoxic

Molecule: C[C@@H]1[C@H](O)[C@@H](C)/C=C/C=C/CC/C=C/C=C/C=C/C=C/C(O[C@H]2O[C@H](C)[C@@H](O)[C@H](N)[C@@H]2O)CC2O[C@](O)(CC(O)C(O)CCC(O)CC(O)CC(O)CC(=O)O[C@H]1C)CC(O)C2C(=O)O (stereo partly shown) [Nystatin]
- MIC (mg/L) Mean ([4]; RPMI + 2% glucose): 3.9 mg/L
- MIC (mg/L) Mean ([5]; RPMI + 2% glucose): 5.4 mg/L
- MIC (mg/L) Mean ([6]; RPMI + 2% glucose): 4.8 mg/L
- MIC (mg/L) Mean ([7]; RPMI + 2% glucose): 2.7 mg/L
- MIC (mg/L) Mean ([8]; RPMI + 2% glucose): 2.2 mg/L
- MIC (mg/L) Mean ([9]; RPMI + 2% glucose): 2.7 mg/L

Molecule: Nc1[nH]c(=O)ncc1F [Flucytosine]
- MIC [10]: 3.67 mg/L (≈ 28.4 µM)
- MIC [11]: 0.25 mg/L (≈ 1.94 µM)
- MIC [12]: 0.063 mg/L (≈ 0.488 µM)
- MIC Control Range [13]: 4 to 16 µg/mL
- MIC Control Range [14]: 0.06 to 0.25 µg/mL

Molecule: CN(C)c1ccc(C(=C2C=CC(=[N+](C)C)C=C2)c2ccc(N(C)C)cc2)cc1 [Gentian Violet]
- MIC [4]: 0.3 mg/L
- MIC [5]: 0.3 mg/L
- MIC [6]: 0.3 mg/L
- MIC [7]: 0.2 mg/L
- MIC [8]: 0.3 mg/L
- MIC [9]: 1.02 mg/L
